In experiment [1] the target is Cyclin-dependent kinase 2/cyclin E (Homo sapiens) (UniProt P24864+P24941+O96020). In words: Inhibition of CDK2/cyclin E. In kind it is protein-complex assay. Also noted: scale not given: the % may be the effect or the level left.
The target of experiment [2] is Cyclin-dependent kinase 2/cyclin A (Homo sapiens, UniProt P24941). In words: Inhibition of Cyclin-dependent kinase 2-cyclin A. In kind it is protein-complex assay.
Experiment [3] has as its target CDK3/cyclin E (Homo sapiens) (UniProt P24864+O96020+Q00526). As to the kind of experiment: Inhibition of Cyclin-dependent kinase 3-cyclin E. In kind it is protein-complex assay. Also on record: scale not given: the % may be the effect or the level left.
The target in experiment [4] is Cyclin-dependent kinase 1/cyclin B (Homo sapiens) (UniProt P06493+P14635+Q8WWL7+O95067). As to the kind of experiment: Inhibition of cyclin-dependent kinase 1-cyclin B. In kind it is protein-complex assay. Also noted: scale not given: the % may be the effect or the level left.
Experiment [5] addresses T1, Inhibitor of nuclear factor kappa-B kinase subunit alpha (Homo sapiens) (UniProt O15111).
T1 sequence (whole entry): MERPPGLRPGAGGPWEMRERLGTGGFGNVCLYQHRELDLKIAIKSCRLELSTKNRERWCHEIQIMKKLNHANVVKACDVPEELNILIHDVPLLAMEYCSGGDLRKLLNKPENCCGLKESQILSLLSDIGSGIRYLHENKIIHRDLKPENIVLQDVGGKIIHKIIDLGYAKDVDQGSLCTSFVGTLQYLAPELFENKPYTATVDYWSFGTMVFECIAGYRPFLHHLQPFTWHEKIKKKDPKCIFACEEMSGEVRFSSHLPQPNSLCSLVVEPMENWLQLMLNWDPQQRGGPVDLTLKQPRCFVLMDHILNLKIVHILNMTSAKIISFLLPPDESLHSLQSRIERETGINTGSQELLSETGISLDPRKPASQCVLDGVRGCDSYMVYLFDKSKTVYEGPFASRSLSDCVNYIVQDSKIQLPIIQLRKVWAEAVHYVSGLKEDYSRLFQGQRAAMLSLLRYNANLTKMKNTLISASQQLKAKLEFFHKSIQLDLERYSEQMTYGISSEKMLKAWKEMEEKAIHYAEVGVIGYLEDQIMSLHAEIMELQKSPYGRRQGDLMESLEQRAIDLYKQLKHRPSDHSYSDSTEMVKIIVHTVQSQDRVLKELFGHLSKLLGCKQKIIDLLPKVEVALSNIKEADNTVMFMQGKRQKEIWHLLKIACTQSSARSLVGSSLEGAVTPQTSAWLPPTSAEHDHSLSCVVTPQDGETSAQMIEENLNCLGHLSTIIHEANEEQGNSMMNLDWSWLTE
In words: Inhibition of I kappa-B kinase alpha. Also on record: scale not given: the % may be the effect or the level left.

Experiment [6] has as its target Mitogen-activated protein kinase 1 (Homo sapiens) (UniProt P28482). As to the kind of experiment: (§1) Inhibition of mitogen-activated protein kinase 2. Also noted: scale not given: the % may be the effect or the level left.
Experiment [7] addresses Mitogen-activated protein kinase 1 (Mus musculus) (UniProt P63085). Described as §1. Also on record: scale not given: the % may be the effect or the level left.
Experiment [8] has as its target T2, Dual specificity mitogen-activated protein kinase kinase 7 (Homo sapiens) (UniProt O14733).
T2 sequence (whole entry): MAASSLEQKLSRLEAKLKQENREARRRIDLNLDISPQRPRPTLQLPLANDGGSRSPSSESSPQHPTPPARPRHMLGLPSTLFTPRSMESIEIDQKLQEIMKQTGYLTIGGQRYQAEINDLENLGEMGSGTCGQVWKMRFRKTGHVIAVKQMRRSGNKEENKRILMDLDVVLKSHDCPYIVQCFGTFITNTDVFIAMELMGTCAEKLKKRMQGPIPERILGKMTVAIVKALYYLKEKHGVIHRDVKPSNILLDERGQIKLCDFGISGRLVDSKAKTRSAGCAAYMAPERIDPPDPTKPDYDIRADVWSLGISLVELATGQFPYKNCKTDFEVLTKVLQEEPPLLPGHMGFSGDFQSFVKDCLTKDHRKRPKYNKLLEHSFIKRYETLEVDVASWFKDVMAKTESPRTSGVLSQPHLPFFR
As to the kind of experiment: Inhibition of Mitogen activated protein kinase kinase 7 beta. Also noted: scale not given: the % may be the effect or the level left.

Experiment [9] is filed under the species Homo sapiens. In words: Inhibition of PKA. Also on record: scale not given: the % may be the effect or the level left.
Experiment [10] has as its target Protein kinase C alpha type (Homo sapiens, UniProt P17252). As to the kind of experiment: Inhibition of PKCalpha. Also on record: scale not given: the % may be the effect or the level left.
Experiment [11] has as its target Protein kinase C beta type (Homo sapiens, UniProt P05771). As to the kind of experiment: Inhibition of PKCbetaII. Also on record: scale not given: the % may be the effect or the level left.
Experiment [12] concerns the target RAC-beta serine/threonine-protein kinase (Homo sapiens) (UniProt P31751). As to the kind of experiment: Inhibition of PKBbeta. Also on record: scale not given: the % may be the effect or the level left.
For experiment [13], the target named is Platelet-derived growth factor receptor alpha (Homo sapiens) (UniProt P16234). As to the kind of experiment: Inhibition of PDGFRalpha. Also noted: scale not given: the % may be the effect or the level left.
Experiment [14] concerns the target Protein kinase C gamma type (Homo sapiens, UniProt P05129). In words: Inhibition of PKCgamma. Also on record: scale not given: the % may be the effect or the level left.
In experiment [15] the target is Protein kinase C theta type (Homo sapiens) (UniProt Q04759). In words: Inhibition of PKCtheta. Also noted: scale not given: the % may be the effect or the level left.
Experiment [16] concerns the target T3, MAP kinase-activated protein kinase 5 (Homo sapiens) (UniProt Q8IW41).
T3 sequence (whole entry): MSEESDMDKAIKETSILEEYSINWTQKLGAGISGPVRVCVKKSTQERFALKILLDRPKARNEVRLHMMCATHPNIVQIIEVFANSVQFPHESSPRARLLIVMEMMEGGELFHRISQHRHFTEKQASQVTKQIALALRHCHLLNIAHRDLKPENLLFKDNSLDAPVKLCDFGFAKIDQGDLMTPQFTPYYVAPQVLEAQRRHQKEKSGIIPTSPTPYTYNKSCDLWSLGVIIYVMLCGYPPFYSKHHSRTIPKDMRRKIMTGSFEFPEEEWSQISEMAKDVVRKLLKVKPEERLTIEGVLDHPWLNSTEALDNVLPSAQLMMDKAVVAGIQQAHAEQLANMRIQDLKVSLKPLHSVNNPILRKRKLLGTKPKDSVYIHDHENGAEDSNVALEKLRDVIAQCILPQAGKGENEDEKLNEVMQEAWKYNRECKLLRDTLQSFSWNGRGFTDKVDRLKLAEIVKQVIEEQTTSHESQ
As to the kind of experiment: Inhibition of PRAK, MAPK5. Also on record: scale not given: the % may be the effect or the level left.

Experiment [17] concerns the target RAF proto-oncogene serine/threonine-protein kinase (Homo sapiens) (UniProt P04049). In words: Inhibition of RAF proto-oncogene serine/threonine-protein kinase. Also on record: scale not given: the % may be the effect or the level left.
Experiment [18] addresses T4, Mitogen-activated protein kinase 12 (Homo sapiens) (UniProt P53778).
T4 sequence (whole entry): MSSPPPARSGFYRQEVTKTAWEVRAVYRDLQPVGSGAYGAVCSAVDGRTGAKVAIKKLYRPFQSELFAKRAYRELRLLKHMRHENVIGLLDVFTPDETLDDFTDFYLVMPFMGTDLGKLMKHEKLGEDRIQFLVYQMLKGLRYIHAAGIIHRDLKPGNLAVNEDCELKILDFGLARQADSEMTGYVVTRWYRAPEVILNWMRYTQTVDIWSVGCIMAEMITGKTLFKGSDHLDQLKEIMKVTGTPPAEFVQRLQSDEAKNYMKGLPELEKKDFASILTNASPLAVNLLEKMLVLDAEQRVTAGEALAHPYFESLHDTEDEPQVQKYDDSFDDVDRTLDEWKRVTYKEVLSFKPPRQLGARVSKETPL
In words: Inhibition of Stress activated protein kinase 3. Also on record: scale not given: the % may be the effect or the level left.

RAC-beta serine/threonine-protein kinase (Homo sapiens), sequence (P31751 whole entry): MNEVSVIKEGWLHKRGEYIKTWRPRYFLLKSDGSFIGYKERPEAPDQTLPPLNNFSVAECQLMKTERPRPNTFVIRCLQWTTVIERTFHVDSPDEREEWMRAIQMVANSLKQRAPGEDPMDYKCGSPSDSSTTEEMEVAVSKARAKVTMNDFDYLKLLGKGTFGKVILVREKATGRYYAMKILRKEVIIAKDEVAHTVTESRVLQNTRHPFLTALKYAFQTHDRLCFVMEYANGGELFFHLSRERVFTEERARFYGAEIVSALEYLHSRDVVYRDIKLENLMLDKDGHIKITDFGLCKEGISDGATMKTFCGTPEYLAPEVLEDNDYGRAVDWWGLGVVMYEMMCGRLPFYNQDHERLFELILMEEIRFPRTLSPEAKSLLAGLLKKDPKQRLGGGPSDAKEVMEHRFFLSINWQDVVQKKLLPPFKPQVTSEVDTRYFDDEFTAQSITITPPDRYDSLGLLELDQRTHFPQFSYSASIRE
Platelet-derived growth factor receptor alpha (Homo sapiens), sequence (P16234 whole entry): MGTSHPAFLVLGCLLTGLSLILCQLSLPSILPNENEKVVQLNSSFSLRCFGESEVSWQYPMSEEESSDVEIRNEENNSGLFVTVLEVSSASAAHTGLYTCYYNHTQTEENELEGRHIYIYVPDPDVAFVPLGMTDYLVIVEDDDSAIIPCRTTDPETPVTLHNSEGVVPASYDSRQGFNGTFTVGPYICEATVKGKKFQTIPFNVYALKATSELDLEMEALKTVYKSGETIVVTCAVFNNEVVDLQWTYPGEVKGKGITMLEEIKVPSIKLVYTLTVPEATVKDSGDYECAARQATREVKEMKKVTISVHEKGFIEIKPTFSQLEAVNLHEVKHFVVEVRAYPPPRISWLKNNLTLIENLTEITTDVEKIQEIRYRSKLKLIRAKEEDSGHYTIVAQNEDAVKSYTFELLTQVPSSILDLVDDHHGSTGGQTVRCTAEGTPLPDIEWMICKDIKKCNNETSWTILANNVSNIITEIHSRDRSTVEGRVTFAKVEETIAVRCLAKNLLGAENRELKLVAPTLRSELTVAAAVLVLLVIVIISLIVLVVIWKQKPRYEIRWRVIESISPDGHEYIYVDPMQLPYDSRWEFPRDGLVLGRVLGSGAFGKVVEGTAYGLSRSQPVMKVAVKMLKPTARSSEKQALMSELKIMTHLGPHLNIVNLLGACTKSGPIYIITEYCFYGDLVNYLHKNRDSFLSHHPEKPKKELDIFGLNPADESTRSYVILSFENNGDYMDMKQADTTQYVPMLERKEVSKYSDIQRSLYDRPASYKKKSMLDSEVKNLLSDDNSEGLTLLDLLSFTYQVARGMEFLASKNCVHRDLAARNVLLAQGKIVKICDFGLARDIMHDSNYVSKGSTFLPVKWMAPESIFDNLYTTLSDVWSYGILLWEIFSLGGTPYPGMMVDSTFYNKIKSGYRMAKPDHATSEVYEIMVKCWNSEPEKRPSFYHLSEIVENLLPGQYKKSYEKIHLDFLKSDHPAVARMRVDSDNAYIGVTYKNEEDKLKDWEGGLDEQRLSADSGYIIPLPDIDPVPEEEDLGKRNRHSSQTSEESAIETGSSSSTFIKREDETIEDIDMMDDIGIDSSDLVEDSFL
Mitogen-activated protein kinase 1 (Homo sapiens), sequence (P28482 whole entry): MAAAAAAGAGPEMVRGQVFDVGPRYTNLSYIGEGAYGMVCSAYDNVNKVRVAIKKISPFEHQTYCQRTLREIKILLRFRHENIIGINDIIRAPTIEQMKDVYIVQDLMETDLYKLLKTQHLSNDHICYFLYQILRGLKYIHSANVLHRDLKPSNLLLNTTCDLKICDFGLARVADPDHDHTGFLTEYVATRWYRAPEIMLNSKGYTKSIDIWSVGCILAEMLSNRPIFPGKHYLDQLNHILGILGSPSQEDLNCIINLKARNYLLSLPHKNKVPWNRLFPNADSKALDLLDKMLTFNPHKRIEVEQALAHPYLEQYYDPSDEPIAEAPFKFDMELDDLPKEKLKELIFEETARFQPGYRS
Protein kinase C theta type (Homo sapiens), sequence (Q04759 whole entry, looked up): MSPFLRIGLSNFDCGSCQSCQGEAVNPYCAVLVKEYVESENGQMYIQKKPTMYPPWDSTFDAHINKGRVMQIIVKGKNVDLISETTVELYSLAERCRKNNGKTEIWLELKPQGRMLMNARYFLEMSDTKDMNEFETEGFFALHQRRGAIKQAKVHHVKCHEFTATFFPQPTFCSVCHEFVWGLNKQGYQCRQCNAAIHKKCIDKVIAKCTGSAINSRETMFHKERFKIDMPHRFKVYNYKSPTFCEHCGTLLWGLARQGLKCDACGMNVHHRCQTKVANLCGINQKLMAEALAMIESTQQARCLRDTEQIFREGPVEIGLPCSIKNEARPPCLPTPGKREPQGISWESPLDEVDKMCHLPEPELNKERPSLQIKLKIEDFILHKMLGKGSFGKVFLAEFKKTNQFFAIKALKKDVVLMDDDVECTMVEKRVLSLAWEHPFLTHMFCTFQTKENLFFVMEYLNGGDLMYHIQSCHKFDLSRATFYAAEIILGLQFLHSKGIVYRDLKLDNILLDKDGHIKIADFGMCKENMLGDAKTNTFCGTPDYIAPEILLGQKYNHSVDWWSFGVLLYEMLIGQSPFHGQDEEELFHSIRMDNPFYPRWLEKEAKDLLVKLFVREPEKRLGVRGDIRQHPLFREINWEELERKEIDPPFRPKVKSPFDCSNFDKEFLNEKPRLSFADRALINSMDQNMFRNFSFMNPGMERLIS
CDK3/cyclin E (Homo sapiens), sequence (O96020 whole entry, looked up): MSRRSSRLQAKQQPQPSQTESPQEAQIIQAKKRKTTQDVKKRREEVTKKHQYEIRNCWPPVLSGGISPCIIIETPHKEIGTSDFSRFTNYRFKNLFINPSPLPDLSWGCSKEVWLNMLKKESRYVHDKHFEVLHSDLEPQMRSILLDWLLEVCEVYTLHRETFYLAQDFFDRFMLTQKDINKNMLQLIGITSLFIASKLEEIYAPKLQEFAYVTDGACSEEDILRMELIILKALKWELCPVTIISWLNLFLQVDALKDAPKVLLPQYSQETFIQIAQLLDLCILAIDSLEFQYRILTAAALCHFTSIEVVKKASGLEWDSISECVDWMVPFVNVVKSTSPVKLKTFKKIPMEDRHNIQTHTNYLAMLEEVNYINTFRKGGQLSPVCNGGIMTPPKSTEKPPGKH
CDK3/cyclin E (Homo sapiens), sequence (P24864 whole entry, looked up): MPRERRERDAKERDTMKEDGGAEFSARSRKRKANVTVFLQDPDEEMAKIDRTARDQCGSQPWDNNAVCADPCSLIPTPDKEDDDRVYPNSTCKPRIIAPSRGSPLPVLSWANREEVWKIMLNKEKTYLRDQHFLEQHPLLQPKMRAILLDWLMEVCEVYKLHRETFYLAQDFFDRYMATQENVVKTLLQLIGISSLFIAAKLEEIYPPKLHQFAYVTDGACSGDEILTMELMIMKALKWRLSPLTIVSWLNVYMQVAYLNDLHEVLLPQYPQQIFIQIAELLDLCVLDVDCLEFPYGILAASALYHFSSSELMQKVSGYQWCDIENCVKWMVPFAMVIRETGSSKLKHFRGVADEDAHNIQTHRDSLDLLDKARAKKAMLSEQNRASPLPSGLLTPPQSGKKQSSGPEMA
CDK3/cyclin E (Homo sapiens), sequence (Q00526 whole entry, looked up): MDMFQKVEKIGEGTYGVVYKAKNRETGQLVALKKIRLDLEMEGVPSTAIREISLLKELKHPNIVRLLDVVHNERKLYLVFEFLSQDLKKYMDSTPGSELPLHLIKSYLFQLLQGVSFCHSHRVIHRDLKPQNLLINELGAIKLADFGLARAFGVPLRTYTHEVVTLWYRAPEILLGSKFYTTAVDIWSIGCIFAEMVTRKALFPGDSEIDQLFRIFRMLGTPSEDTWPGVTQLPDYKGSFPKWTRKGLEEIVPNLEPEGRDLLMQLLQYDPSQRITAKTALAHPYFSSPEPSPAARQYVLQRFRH
Mitogen-activated protein kinase 1 (Mus musculus), sequence (P63085 whole entry): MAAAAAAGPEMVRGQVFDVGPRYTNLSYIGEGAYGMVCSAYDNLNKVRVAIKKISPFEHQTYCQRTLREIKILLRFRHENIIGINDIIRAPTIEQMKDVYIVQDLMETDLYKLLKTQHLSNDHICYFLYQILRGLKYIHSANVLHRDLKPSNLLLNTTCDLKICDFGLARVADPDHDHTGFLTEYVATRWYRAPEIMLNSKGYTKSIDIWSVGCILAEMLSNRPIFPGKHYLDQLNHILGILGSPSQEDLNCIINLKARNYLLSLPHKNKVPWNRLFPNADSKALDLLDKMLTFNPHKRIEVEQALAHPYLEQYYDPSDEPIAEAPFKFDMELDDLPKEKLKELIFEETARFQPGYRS

For `COc1ccccc1C1=C(c2cn(CCCNC(=O)OC(C)(C)C)c3ncccc23)C(=O)NC1=O`, the Activity in [1] was 3%; in [3], 3%; in experiment [4], 3%; in experiment [5] it was 89%; in [6], 92%; in experiment [7], 89%. Besides, the Activity in experiment [8] came out at 101%; in experiment [9], 95%; in experiment [10], 38%; in experiment [11], 15%; in [12] it was 99%; in experiment [13] it was 108%. Further, the Activity in experiment [14] is 76%; in experiment [15] it was 71%; in experiment [16] it was 57%; in experiment [17], 92%; in experiment [18], 122%. In experiment [2], this compound came in with an IC50 of 68 nM.

As to `COCCCn1cc(C2=C(c3ccccc3O)C(=O)NC2=O)c2cccnc21`, the Activity in experiment [1] amounted to 11%; in [3] it was 26%; in [4], 9%; in experiment [5] it was 83%; in experiment [6], 92%; in experiment [7], 100%. In addition, the Activity in experiment [8] was 71%; in experiment [9], 92%; in experiment [10], 46%; in experiment [11], 32%; in [12], 82%; in experiment [13], 99%. Also, the Activity in experiment [14] came to 59%; in experiment [15] it was 46%; in [16], 82%; in [17] it was 74%; in [18], 120%. For the same compound, in experiment [2], half-maximal inhibition (IC50) required 430 nM.

For `O=C1NC(=O)C(c2cn(CCCO)c3ncccc23)=C1c1ncc(C(F)(F)F)cc1Cl`, the Activity in [1] was determined as 30%; in experiment [3], 62%; in experiment [4], 34%; in experiment [5], 76%; in experiment [6], 91%; in experiment [7] it was 93%. The Activity is 68% in experiment [8]; 87% in experiment [9]; 70% in [10]; 70% in experiment [11]; 69% in experiment [12]; 86% in experiment [13]. Moreover, the Activity amounted to 72% in [14]; 66% in [15]; 59% in experiment [16]; 74% in experiment [17]; 86% in experiment [18]. Further, it took 2800 nM to reach half-maximal inhibition in experiment [2] (IC50).

A word on the IC50: it is the point on the concentration scale where inhibition reaches its midpoint.

Values taken from ChEMBL document CHEMBL1146654, “3-(7-Azaindolyl)-4-arylmaleimides as potent, selective inhibitors of glycogen synthase kinase-3” (Bioorg Med Chem Lett, 2004).
